Here are results for 1 compound from paper PMC6193938, “Characterization of a novel AICARFT inhibitor which potently elevates ZMP and has anti-tumor activity in murine models” (Scientific Reports, 2018).

Entries after “also recorded” stand apart in the source; their conditions may differ.

Test [1] has as its target T1, PKCb2 (Homo sapiens, UniProt P05771).
T1 construct: purchased CEREP Panlabs (Eurofins)
Description: CEREP protein kinase assay. In kind it is biochemical.

In test [2] the test system is A9 cells. Kind of test: MS detection of ZMP and dUMP in cultured cells. In kind it is cell-based, murine. On the procedure:
To mimic human plasma levels, low folate media is traditionally used in which the folate comes only from the defined fetal bovine serum. […] Because LSN3213128 would be dosed in mice on normal diet, cell line screening was performed under standard tissue culture conditions to identify cell lines sensitive to treatment under high folate conditions. In order to compare tissue culture values with tumor levels, an average 4 pL cell volume[36] was used to calculate cellular ZMP concentrations. In MDA-MB-231[…] cells using regular RPMI, the peak intracellular ZMP levels are about 770 μM while in the salvage deficient A9 cells ZMP is 6,500 μM. […] It is not surprising that in vivo in mice on standard chow where folate plasma levels are >10-fold lower than tissue culture that tumor ZMP levels are also lower. […] ZMP was detected in cultured cells via mass spec analysis. Cells were plated in 96-well plates at 25,000 cells per well in 100 μL with either high or low folate RPMI media and incubated overnight at 37 °C with 5% CO2. Cells were treated with inhibitor compounds for 16 hours, 0.5% DMSO final concentration. Growth media was decanted and cells were lysed for 10 min at room temperature with 50 μL per well of 1x Sure Fire Lysis buffer (Perkin Elmer, SureFire kit component). […] Samples were sealed, vortexed for 5 minutes, and placed in the refrigerator for at least 30 minutes. The samples were centrifuged at 4 °C for 10 minutes at 16,600 g. 75 μL of the aqueous layer were transferred to a clean 96-well plate and seal prior to analysis. The LC-MS method utilizes a Shimadzu Prominence 20 A HPLC system connected to an AB Sciex 5500TM or an AB Sciex 6500TM triple quadrupole mass spectrometer. […] […] dUMP were detected using positive ion TurboIonSpray® multiple reaction monitoring mode and the data were processed with AB Sciex MultiQuantTM. Back-calculated ZMP concentrations were fit to a four-parameter logistic equation using ACTIVITYBASE 4.0 to determine EC50 values relative to the maximum observed metabolite levels.

The test system of test [3] is protein kinase. Kind of test: Panel of protein kinase assays at CEREP Panlabs (Eurofins), overall. Format: biochemical.
Test [4] deals with T2, TNK1 (Homo sapiens, UniProt Q13470).
T2 construct: purchased CEREP Panlabs (Eurofins)
T2 sequence (Q13470 1-666): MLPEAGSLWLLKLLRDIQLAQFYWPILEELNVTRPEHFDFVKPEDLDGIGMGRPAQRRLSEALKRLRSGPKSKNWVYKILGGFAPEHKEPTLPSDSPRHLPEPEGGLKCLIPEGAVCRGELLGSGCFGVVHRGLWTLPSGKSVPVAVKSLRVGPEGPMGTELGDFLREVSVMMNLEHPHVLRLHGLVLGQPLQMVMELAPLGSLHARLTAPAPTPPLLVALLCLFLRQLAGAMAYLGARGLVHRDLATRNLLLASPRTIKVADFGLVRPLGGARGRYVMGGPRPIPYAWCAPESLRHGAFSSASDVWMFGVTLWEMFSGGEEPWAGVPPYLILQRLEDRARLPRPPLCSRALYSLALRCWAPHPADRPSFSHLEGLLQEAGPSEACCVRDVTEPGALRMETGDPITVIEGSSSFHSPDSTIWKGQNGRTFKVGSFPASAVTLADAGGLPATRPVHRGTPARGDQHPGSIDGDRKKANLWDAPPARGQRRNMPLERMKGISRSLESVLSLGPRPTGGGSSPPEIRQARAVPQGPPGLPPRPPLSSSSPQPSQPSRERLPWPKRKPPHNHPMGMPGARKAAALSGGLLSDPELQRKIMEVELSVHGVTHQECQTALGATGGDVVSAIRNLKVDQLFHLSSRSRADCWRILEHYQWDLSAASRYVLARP
Kind of test: CEREP protein kinase assay. In kind it is biochemical.

The target of test [5] is T3, DDR2 (Homo sapiens, UniProt Q16832).
T3 construct: purchased CEREP Panlabs (Eurofins)
T3 sequence (Q16832 22-855): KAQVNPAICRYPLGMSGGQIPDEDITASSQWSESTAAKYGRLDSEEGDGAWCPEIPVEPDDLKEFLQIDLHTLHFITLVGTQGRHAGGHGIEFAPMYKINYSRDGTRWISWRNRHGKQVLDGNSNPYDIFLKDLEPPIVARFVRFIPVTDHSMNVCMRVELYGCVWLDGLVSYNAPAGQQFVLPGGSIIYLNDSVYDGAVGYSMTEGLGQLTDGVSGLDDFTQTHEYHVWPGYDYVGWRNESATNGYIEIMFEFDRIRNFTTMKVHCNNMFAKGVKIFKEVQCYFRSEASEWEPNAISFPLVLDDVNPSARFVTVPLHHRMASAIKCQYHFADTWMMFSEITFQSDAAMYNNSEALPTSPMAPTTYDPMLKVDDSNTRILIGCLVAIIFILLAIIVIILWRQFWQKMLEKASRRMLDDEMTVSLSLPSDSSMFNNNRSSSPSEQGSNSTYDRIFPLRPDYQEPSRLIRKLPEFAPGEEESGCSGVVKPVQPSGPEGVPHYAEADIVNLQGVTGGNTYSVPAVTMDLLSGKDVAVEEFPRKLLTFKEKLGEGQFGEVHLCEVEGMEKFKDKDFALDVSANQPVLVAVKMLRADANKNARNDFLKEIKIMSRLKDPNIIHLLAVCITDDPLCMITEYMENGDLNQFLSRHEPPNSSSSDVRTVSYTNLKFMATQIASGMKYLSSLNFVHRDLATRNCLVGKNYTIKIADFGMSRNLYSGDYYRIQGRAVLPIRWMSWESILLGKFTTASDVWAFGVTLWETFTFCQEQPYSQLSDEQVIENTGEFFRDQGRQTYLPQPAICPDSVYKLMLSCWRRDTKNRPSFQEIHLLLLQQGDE
Kind of test: CEREP protein kinase assay. Format: biochemical.

For test [6], the target named is T4, STK33 (Homo sapiens, UniProt Q9BYT3).
T4 construct: purchased CEREP Panlabs (Eurofins)
Description: CEREP protein kinase assay. In kind it is biochemical.

The target of test [7] is T5, ALK (Homo sapiens, UniProt Q9UM73).
T5 construct: purchased CEREP Panlabs (Eurofins)
Description: CEREP protein kinase assay. Format: biochemical.

T4 sequence (Q9BYT3 whole entry): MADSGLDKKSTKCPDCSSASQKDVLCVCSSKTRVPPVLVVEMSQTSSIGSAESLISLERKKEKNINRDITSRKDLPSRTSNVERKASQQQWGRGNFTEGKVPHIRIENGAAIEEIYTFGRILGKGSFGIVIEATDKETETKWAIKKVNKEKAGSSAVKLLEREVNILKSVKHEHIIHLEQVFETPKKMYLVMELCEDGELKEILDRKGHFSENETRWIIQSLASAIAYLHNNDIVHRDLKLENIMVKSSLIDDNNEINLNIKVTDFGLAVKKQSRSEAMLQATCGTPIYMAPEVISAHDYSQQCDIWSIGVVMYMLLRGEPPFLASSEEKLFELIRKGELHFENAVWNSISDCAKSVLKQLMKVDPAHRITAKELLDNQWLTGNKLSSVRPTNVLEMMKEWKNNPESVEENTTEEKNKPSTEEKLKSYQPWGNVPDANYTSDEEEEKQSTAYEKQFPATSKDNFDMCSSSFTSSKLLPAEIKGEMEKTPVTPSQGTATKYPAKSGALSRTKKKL
T5 sequence (Q9UM73 19-1620): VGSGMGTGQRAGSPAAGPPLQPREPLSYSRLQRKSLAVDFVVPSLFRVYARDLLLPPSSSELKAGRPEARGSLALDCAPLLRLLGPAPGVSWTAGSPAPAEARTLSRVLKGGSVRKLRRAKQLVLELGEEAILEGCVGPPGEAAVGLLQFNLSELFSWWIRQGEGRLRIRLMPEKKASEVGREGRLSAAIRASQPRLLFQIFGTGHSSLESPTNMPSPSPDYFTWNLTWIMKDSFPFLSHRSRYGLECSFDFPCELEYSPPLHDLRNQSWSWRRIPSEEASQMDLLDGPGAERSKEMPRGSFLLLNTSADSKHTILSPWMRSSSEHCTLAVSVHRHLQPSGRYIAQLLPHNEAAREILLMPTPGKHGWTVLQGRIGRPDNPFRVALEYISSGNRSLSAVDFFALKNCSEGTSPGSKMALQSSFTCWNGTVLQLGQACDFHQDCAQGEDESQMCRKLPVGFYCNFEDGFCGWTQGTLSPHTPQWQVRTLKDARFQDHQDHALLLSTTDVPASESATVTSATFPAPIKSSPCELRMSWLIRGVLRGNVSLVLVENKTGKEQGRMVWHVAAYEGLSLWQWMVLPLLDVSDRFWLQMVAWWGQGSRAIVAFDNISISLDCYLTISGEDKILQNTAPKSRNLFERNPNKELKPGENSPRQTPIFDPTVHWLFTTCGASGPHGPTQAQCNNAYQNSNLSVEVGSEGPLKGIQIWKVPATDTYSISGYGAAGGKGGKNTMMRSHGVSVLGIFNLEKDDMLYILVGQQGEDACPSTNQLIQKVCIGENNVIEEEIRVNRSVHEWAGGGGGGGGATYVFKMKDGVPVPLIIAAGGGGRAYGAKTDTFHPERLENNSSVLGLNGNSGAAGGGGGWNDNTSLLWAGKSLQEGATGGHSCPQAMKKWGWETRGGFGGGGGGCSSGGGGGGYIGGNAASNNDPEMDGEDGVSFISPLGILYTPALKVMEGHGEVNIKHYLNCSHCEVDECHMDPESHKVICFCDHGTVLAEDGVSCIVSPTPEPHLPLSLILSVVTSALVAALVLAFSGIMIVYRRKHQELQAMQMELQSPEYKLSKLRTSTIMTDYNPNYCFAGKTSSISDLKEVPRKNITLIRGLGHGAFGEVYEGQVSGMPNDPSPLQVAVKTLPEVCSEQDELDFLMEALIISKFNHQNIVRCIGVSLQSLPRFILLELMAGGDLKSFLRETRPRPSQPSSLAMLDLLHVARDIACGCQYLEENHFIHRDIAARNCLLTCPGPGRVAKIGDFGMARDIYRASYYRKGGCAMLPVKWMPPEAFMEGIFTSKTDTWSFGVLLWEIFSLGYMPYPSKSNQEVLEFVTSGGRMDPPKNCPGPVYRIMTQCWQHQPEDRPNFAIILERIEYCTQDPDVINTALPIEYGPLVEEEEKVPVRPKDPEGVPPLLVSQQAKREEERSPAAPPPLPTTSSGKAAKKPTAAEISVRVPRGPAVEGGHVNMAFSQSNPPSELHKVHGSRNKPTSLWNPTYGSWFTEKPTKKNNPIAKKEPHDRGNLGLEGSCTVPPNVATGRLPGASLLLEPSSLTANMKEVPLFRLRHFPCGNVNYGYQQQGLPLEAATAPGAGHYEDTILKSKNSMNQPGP
T1 sequence (P05771 1-673 isoform P05771-2): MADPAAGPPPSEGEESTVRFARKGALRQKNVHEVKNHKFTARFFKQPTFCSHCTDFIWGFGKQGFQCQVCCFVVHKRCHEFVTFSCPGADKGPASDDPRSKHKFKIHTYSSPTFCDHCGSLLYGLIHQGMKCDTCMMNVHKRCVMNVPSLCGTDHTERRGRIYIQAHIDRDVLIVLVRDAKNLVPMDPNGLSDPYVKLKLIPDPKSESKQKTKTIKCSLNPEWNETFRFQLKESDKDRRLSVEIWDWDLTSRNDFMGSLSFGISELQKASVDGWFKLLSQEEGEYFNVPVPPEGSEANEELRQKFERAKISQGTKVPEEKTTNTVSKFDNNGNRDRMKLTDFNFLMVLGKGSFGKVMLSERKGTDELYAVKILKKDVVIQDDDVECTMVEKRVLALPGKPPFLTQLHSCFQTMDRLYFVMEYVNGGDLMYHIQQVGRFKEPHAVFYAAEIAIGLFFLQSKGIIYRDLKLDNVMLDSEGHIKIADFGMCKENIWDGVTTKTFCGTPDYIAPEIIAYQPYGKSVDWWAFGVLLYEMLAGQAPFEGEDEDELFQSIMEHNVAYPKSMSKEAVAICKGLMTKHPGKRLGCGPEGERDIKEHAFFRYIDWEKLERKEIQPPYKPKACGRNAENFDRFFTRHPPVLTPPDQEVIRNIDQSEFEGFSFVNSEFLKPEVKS

The term inhibition denotes the drop in the measured response relative to a control, in per cent. On to `O=c1[nH]ccc2cc(F)c(NS(=O)(=O)c3ccc(N4CC[C@@H](O)C4)s3)cc12` [LSN3213128, N-(6-Fluoro-1-oxo-1,2-dihydroisoquinolin-7-yl)-5-[(3R)-3-hydroxypyrrolidin-1-yl]thiophene-2-sulfonamide], for which the inhibition at 0.2 µM in test [1] (@ 0.2 uM) is -3.72%; in test [4] (@ 0.2 uM) it was -11.5%; in test [5] (@ 0.2 uM), -16.5%; in test [6] (@ 0.2 uM) it was -5.61%; in test [7] (@ 0.2 uM) it was -16.7%. Besides, the inhibition at 2 µM in test [1] (@ 2 uM) is -1.04%; in test [4] (@ 2 uM) it was -5.26%; in test [5] (@ 2 uM) it was -13.4%; in test [6] (@ 2 uM), 15.3%; in test [7] (@ 2 uM), 7.47%. Further, the inhibition at 20 µM was -3.76% in test [1] (@ 20 uM); -3.7% in test [4] (@ 20 uM); -3.1% in test [5] (@ 20 uM); -1.42% in test [6] (@ 20 uM); 31.8% in test [7] (@ 20 uM). The “dUMP levels in tissue culture” value in test [2] (A9) was “No changes; also recorded: does not alter”. The “peak intracellular ZMP levels” value in test [2] (A9 cells, calculated with 4 pL cell volume) was 6,500 μM. Further, the “protein kinase activity, panel” value in test [3] is recorded as “no significant protein kinase activity”.
